Target: T1, TAOK2 (TAO1) (Homo sapiens, UniProt Q9UL54)
T1 construct: purchased Thermo Fisher Scientific (Life Technologies) SelectScreen
Test: SelectScreen Z'LYTE
Format: biochemical
Procedure, shortened: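 Percent values come from Thermo SelectScreen profiling of NU5455, combining activity and binding assays. CSF1R was run in Z'LYTE format at Km app ATP, and CAMK1 in Adapta format with ATP listed at 10.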

T1 sequence (Q9UL54 whole entry): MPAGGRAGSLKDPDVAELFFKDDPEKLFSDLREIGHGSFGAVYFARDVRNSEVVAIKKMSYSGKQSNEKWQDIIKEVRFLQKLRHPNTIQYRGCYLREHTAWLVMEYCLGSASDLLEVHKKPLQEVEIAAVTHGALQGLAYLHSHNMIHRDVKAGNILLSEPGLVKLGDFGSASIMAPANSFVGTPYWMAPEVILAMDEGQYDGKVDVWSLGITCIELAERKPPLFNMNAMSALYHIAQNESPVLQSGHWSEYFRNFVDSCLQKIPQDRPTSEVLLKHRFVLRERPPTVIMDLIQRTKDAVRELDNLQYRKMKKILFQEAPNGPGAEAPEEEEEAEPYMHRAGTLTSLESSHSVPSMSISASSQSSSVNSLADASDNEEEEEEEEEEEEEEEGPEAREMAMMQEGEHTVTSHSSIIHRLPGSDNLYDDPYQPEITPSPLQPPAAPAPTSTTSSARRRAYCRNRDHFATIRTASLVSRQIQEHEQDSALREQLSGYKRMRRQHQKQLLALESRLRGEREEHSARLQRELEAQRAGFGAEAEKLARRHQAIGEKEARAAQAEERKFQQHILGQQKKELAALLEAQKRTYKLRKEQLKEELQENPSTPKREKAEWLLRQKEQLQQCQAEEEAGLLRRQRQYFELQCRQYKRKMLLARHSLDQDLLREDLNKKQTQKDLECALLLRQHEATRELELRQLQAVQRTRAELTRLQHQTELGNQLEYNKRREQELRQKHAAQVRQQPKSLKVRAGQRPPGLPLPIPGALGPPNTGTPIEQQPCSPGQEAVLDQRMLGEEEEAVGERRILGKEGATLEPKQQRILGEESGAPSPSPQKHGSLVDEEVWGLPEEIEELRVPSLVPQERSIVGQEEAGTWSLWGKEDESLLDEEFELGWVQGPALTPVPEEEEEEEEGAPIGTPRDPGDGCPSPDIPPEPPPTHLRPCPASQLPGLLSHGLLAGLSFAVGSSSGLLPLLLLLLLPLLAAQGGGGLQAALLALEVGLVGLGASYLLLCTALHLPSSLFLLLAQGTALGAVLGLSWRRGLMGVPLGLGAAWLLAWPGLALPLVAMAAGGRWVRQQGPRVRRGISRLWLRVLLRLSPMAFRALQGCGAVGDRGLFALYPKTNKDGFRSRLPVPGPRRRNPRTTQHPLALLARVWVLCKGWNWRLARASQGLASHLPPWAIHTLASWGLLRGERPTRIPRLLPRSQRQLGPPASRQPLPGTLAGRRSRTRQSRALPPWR

`CN(C(=O)CN1CCOCC1)c1ccc2sc3c(-c4cccc5c(=O)cc(N6CC7CCC(C6)O7)oc45)cccc3c2c1` [NU5455] gave an inhibition at 1 µM of -5.1%.

Reference: article PMC6934184, “Selective DNA-PKcs inhibition extends the therapeutic index of localized radiotherapy and chemotherapy” (The Journal of Clinical Investigation, 2019)
